Data as given in EPA's ToxRefDB 2.

What was measured:
[1] = tested on: mouse; details: Carcinogenicity; cd1; Oral; Feed; dose end: 104 week; group: cholinesterase; cholinesterase / cholinesterase / cholinesterase / cholinesterase (che)
[2] = tested on: dog; details: Chronic toxicity; beagle; Oral; Feed; dose end: 24 month; group: cholinesterase; cholinesterase / cholinesterase / cholinesterase / plasma cholinesterase (che)
[3] = tested on: dog; details: Chronic toxicity, beagle, Oral, Feed, dose end: 52 week, group: cholinesterase
[4] = tested on: rabbit; details: Prenatal developmental toxicity study, Oral, Gavage/Intubation, dose end: 18 GD
[5] = tested on: rat; details: Prenatal developmental toxicity study, other, Oral, Gavage/Intubation, dose end: 15 GD
[6] = tested on: mouse; details: Carcinogenicity; b6c3f1; Oral; Feed; dose end: 104 week; group: systemic; systemic / pathology microscopic / liver / cellular alteration + systemic / pathology microscopic / liver / fatty change + systemic / …
[7] = tested on: mouse; details: Subchronic oral toxicity in rodents, other, Feed, dose end: 13 week, group: systemic
[8] = tested on: rat; details: Subchronic oral toxicity in rodents, sprague dawley, Feed, dose end: 13 week, group: systemic
[9] = tested on: rat; details: Subchronic oral toxicity in rodents, sprague dawley, Feed, dose end: 90 day, group: systemic
[10] = tested on: dog; details: Chronic toxicity; beagle; Oral; Feed; dose end: 52 week; group: systemic; systemic / organ weight / liver / absolute + systemic / organ weight / liver / relative to body weight + systemic / pathology gross / liver…
[11] = tested on: mouse; details: Sub-acute repeat dose toxicity, other, Oral, Feed, dose end: 4 week, group: systemic
[12] = tested on: rat; details: Multigenerational reproductive toxicity study, sprague dawley, Oral, Feed, dose end: 2 generation
[13] = tested on: rat; details: Prenatal developmental toxicity study, sprague dawley, Oral, Gavage/Intubation, dose end: 16 GD
[14] = tested on: rat; details: Combined chronic toxicity/carcinogenicity, sprague dawley, Oral, Feed, dose end: 104 week
[15] = tested on: rabbit; details: Prenatal developmental toxicity study, new zealand white, Oral, Gavage/Intubation, dose end: 18 GD
[16] = cholinesterase / cholinesterase / cholinesterase / plasma cholinesterase (che)
[17] = cholinesterase / cholinesterase / cholinesterase / plasma cholinesterase (che) + cholinesterase / cholinesterase / cholinesterase / brain …
[18] = group: developmental, developmental / developmental malformation / bone / fused
[19] = group: maternal, systemic / in life observation / body weight / body weight gain + systemic / urinalysis / appearance and color / appearance and color
[20] = group: maternal, systemic / in life observation / body weight / body weight gain + systemic / urinalysis / appearance and color / appearance and color + …
[21] = group: developmental, developmental / developmental malformation / bone / delayed ossification
[22] = group: maternal, systemic / in life observation / clinical signs / hyperactivity
[23] = systemic / in life observation / body weight / body weight + systemic / in life observation / body weight / body weight gain + systemic / in…
[24] = systemic / organ weight / liver / absolute
[25] = systemic / organ weight / liver / absolute + systemic / organ weight / kidney / absolute + systemic / organ weight / kidney / relative to …
[26] = systemic / pathology microscopic / liver / hypertrophy
[27] = systemic / organ weight / liver / absolute + systemic / organ weight / liver / relative to body weight + systemic / pathology microscopic / …
[28] = group: offspring, developmental / developmental malformation / trunk / [other] + developmental / developmental malformation / ureter / hydroureter + systemic…
[29] = group: parental, systemic / in life observation / body weight / body weight + systemic / organ weight / pituitary gland / relative to body weight + systemic…
[30] = group: parental, systemic / organ weight / pituitary gland / relative to body weight + systemic / in life observation / water consumption / water consumption…
[31] = group: developmental, developmental / developmental malformation / bone / cervical + systemic / in life observation / body weight / fetal weight
[32] = group: developmental, developmental / developmental malformation / bone / cervical + systemic / in life observation / body weight / fetal weight + developmental…
[33] = group: maternal, systemic / in life observation / body weight / body weight gain + systemic / in life observation / food consumption / food consumption + …
[34] = group: cholinesterase, cholinesterase / cholinesterase / cholinesterase / erythrocyte cholinesterase (che) + cholinesterase / cholinesterase / cholinesterase / …
[35] = group: systemic, systemic / pathology microscopic / liver / eosinophilic focus
[36] = group: systemic, systemic / pathology microscopic / liver / eosinophilic focus + systemic / pathology microscopic / liver / hypertrophy
[37] = group: developmental, developmental / developmental malformation / bone / full supernumerary
[38] = group: developmental, developmental / developmental malformation / bone / full supernumerary + systemic / in life observation / body weight / fetal weight

CCOP(=S)(OCC)SCSP(=S)(OCC)OCC [Ethion] was tested, and the LEL [1] was 1.2 mg/kg/day, the LOAEL [1] was over 1.2 mg/kg/day and the NEL [1] was 0.22 mg/kg/day. For the same molecule, the NOAEL [1] was at least 1.2 mg/kg/day, the LEL [2] was 0.403 mg/kg/day and the LOAEL [2] was 0.403 mg/kg/day. It also gave an NEL [2] of 0.123 mg/kg/day, an NOAEL [2] of 0.123 mg/kg/day and an LEL [3, 16] of 0.049 mg/kg/day. For the same molecule, the LOAEL [3, 16] was 0.049 mg/kg/day, the NEL [3, 17] was 0.026 mg/kg/day and the NOAEL [3, 17] was 0.026 mg/kg/day. For the same molecule, the LEL [4, 18] was 9.6 mg/kg/day, the LOAEL [4, 18] was 9.6 mg/kg/day and the NEL [4, 18] was 2.4 mg/kg/day. For the same molecule, the NOAEL [4, 18] was 2.4 mg/kg/day, the LEL [4, 19] was 2.4 mg/kg/day and the LOAEL [4, 19] was 2.4 mg/kg/day. For the same molecule, the NEL [4, 20] was 0.6 mg/kg/day, the NOAEL [4, 20] was 0.6 mg/kg/day and the LEL [5, 21] was 2.5 mg/kg/day. The LOAEL [5, 21] was 2.5 mg/kg/day, the NEL [5, 21] was 0.6 mg/kg/day and the NOAEL [5, 21] was 0.6 mg/kg/day. The LEL [5, 22] was 2.5 mg/kg/day, the LOAEL [5, 22] was 2.5 mg/kg/day and the NEL [5, 22] was 0.6 mg/kg/day. For the same molecule, the NOAEL [5, 22] was 0.6 mg/kg/day.
Work on CCCOCC(=Nc1ccc(Cl)cc1C(F)(F)F)n1ccnc1 [Triflumizole] yielded an LEL [6] of 67.4 mg/kg/day, an LOAEL [6] of 67.4 mg/kg/day and an NEL [6] of 16.2 mg/kg/day. The NOAEL [6] was 16.2 mg/kg/day, the LOAEL ([7]; systemic / in life observation / body weight / body weight + systemic / in life observation / body weight / body weight gain) was 381 mg/kg/day and the LEL [7, 23] was 381 mg/kg/day. The NEL [7, 23] was 33.1 mg/kg/day, the NOAEL [7, 23] was 33.1 mg/kg/day and the LEL [8, 24] was 1.4 mg/kg/day. For the same molecule, the NEL [8, 24] was under 1.4 mg/kg/day, the LOAEL [8, 25] was 176 mg/kg/day and the NOAEL [8, 25] was 15.3 mg/kg/day. It also gave an LEL [9, 26] of 4.1 mg/kg/day, an NEL [9, 26] of under 4.1 mg/kg/day and an LOAEL ([9]; systemic / pathology microscopic / liver / hypertrophy + systemic / pathology microscopic / liver / vacuolization) of 40.9 mg/kg/day. The NOAEL ([9]; systemic / pathology microscopic / liver / hypertrophy + systemic / pathology microscopic / liver / vacuolization + systemic / hematology / …) was 4.1 mg/kg/day, the LEL [10] was 34.1 mg/kg/day and the LOAEL [10] was 34.1 mg/kg/day. The NEL [10] was 10 mg/kg/day, the NOAEL [10] was 10 mg/kg/day and the LOAEL [11, 27] was 397 mg/kg/day. The NEL [11, 27] was 3.8 mg/kg/day, the NOAEL [11, 27] was 40.3 mg/kg/day and the LEL ([11]; systemic / organ weight / liver / relative to body weight + systemic / urinalysis / glucose / glucose) was 40.3 mg/kg/day. The LOAEL ([12]; group: offspring, developmental / developmental malformation / trunk / [other] + developmental / developmental malformation / ureter / hydroureter) was 8.5 mg/kg/day, the LEL [12, 28] was 8.5 mg/kg/day and the NEL [12, 28] was 3.5 mg/kg/day. For the same molecule, the NOAEL [12, 28] was 3.5 mg/kg/day, the LOAEL [12, 29] was over 8.5 mg/kg/day and the NOAEL [12, 29] was at least 8.5 mg/kg/day. The LEL [12, 30] was 1.5 mg/kg/day, the NEL [12, 30] was under 1.5 mg/kg/day and the NOAEL ([12]; group: reproductive, reproductive / reproductive performance / gestational length / gestational length) was 3.5 mg/kg/day. For the same molecule, the LOAEL ([12]; group: reproductive, reproductive / reproductive performance / gestational length / gestational length + reproductive / offspring survival early / litter size / …) was 8.5 mg/kg/day, the NEL ([12]; group: reproductive, reproductive / reproductive performance / gestational length / gestational length + reproductive / reproductive performance / mating / …) was 1.5 mg/kg/day and the LEL ([12]; group: reproductive, reproductive / reproductive performance / mating / mating) was 3.5 mg/kg/day. It also gave an LEL [13, 31] of 35 mg/kg/day, an LOAEL [13, 31] of 35 mg/kg/day and an NEL [13, 32] of 10 mg/kg/day. The NOAEL [13, 32] was 10 mg/kg/day, the LEL [13, 33] was 35 mg/kg/day and the LOAEL [13, 33] was 35 mg/kg/day. It also gave an NEL [13, 33] of 10 mg/kg/day, an NOAEL [13, 33] of 10 mg/kg/day and an LEL [14, 34] of 14.4 mg/kg/day. For the same molecule, the LOAEL [14, 34] was over 59.4 mg/kg/day, the NEL [14, 34] was 3.5 mg/kg/day and the NOAEL [14, 34] was at least 59.4 mg/kg/day. The LOAEL [14, 35] was 3.5 mg/kg/day, the NOAEL [14, 35] was under 3.5 mg/kg/day and the LEL [14, 36] was 3.5 mg/kg/day. It also gave an NEL [14, 36] of under 3.5 mg/kg/day, an LEL [15, 37] of 100 mg/kg/day and an LOAEL [15, 37] of 100 mg/kg/day. It also gave an NEL [15, 38] of 50 mg/kg/day, an NOAEL [15, 38] of 50 mg/kg/day and an LEL [15, 33] of 100 mg/kg/day. It also gave an LOAEL [15, 33] of 100 mg/kg/day, an NEL [15, 33] of 50 mg/kg/day and an NOAEL [15, 33] of 50 mg/kg/day.
